Assay results from patent EP0374249A1, “METHOD OF STERILIZING PLANT POLLEN” (VSESOJUZNY NAUCHNO-ISSLEDOVATELSKY INST. SELSKOKHOZYAISTV. …, priority 1988, dated 1989).

Legend:
[1] = test system: Hirse Sorte Mironovskoe 94; assay: Field test of pollen sterilisation, millet Mironovskoe 94; assay type: in vivo; details: 1% aqueous emulsion, 8 kg/ha; for Prozentsatz der Sterilität / Anzahl von Körnern der Rispe bei freier Bestäubung / Anzahl von Körnern der Rispe im Isolator: period V of organogenesis; for Anzahl von Körnern der Rispe bei freier Bestäubung: free pollination; for Anzahl von Körnern der Rispe im Isolator: isolated panicles; for Prozentsatz des Ansetzens von Körnern bei freier Bestäubung: period V, non-isolated control = 100%
Description: (§1) Die gametozide Aktivität der erfindungsgemässen Sterilisationsmittel war im Feldversuch in verschiedenen Bodenklimatischen Zonen mit Teilstücken von 10 m^2 Grösse in drei- bis viermaliger Wiederholung nachgewiesen. Jedes Sterilisationsmittel wurde mindestens 5 Jahre lang geprüft.
(§2) Die Entwicklung der Perioden der Organogenese wird zytologischüberwacht. Die Behandlung von Pflanzen mit dem Sterilisationsmittel erfolgt am Anfang der fünften Periode der Organogenese nach Kupermann.
(§3) Mit dem Ahrenschiebe verwirklicht man die Isolierung von Hauptähren und anderen Stockwerken in Pergamentbeuteln. Bei Weizen und Tritikale werden Einzelisolatoren verwendet. Bei Roggen schliesst man je Ähre 5 bis 7 verschiedene nebeneinander befindliche Pflanzen unter einen gemeinsamen Isolator ein. Bei Hirse wird jede Rispe getrennt isoliert. Der Sterilitätsprozentsatz (X) für Weizen, Roggen, Tritikale und Hirse wird nach folgender Formel [formula] ermittelt.
(§4) Die Kornzahl in nicht isolierten ähren von Kontrollpflanzen wird bedingt für 100% Ansetzen bei freier Bestäubung angenommen.
(§5) Um zuverlässige Angaben zu erhalten, verwendet man 20 bis 25 Isolatoren jeder Wiederholung für Weisen und Tritikale, 10 bis 15 Gruppenisolatoren jeder Wiederholung für Roggen und Hirse.
Pflanzen der Hirse Sorte Mironovskoe 94 werden in der V. Periode der Organogenese (nach Kupermann) mit einer 1%igen wässrigen Emulsion von N-(2-Dimethylaminoäthyl)maleaminsäure, N-(3-Dimethylaminopropyl)maleaminsäure, N-Äthylmaleaminsäure, N-(2-Hydroxyäthyl)maleaminsäure, N-Karbamoylmaleaminsäure behandelt. Die Emulsion enthält 0,01 Masse% Dimethylaulfoxid und 0,1 Masse% Kalziumalkylbenzolsulfonat mit 12 bis 14 Kohlenstoffatomen. Der Verbrauch an Präparat beträgt 8 kg/ha. Als Kontrolle dienen Pflanzen, behandelt mit einem Verdünner ohne Sterilisationsmittel. Die Prüfergebnisse sind in der Tabelle 12 dargestellt. […] Periode der Organogenese erhalten.

[2] = test system: Winterweizens Sorte Bezostaya 1; assay: Field test of pollen sterilisation, winter wheat Bezostaya 1; assay type: in vivo, Winterweizen; details: 2% aqueous emulsion, 16 kg/ha; for Prozentsatz der Sterilität / Anzahl von Körnern der Ähre bei freier Bestäubung / Anzahl von Körnern der Ähre im Isolator: period V of organogenesis; for Anzahl von Körnern der Ähre bei freier Bestäubung: free pollination; for Anzahl von Körnern der Ähre im Isolator: isolated ears; for Prozentsatz des Ansetzens von Körnern bei breier Bestäubung: period V, non-isolated control ears = 100%
Description: Pflanzen des Winterweizens Sorte Bezostaya 1 werden in der V. Periode der Organogenese durch Zerstäubung einer 2%igen wässrigen Emulsion von N-(2-Dimethylaminoäthyl)-maleaminsäure, N-(3-Dimethylaminopropyl)-maleaminsäure, N-Äthylmaleaminsäure, N-(2-Hydroxyäthyl)-maleaminsäure, N-Karbamoylmaleaminsäure mit Hilfe deiner Rückspritze behandelt. Die Emulsion enthält 0,1 Masse% Kalziumalkylbenzolsulfonat mit 12 bis 14 Kohlenstoffatomen. Als Adjuvans führt man in die Emulsion 0,01 Masse% Tetrahydrofuran ein.
Der Verbrauch an Präparat beträgt 16 kg/ha. Als Kontrolle dienen Pflanzen, behandelt mit einem Verdünner ohne Sterilisationsmitteln.

[3] = test system: Sommerweizens Sorte Botanicheskaya 4; assay: Field test of pollen sterilisation, spring wheat Botanicheskaya 4; assay type: in vivo, Sommerweizen; details: 1% aqueous emulsion, 6 kg/ha; for Prozentsatz der Sterilität / Anzahl von Körnern der Ähre bei freier Bestäubung / Anzahl von Körnern der Ähre im Isolator: period V of organogenesis; for Anzahl von Körnern der Ähre bei freier Bestäubung: free pollination; for Anzahl von Körnern der Ähre im Isolator: isolated ears; for Prozentsatz des Ansetzens von Körnern bei freier Bestäubung: period V, non-isolated control ears = 100%
Description: Pflanzen des Sommerweizens Sorte Botanicheskaya 4 werden in der V. Periode der Organogenese (nach Kupermann) mit einer 1%igen Wässrigen Emulsion von N-(2-Dimethyl-aminoäthyl)-maleaminsäure, N-(3-Dimethylaminopropyl)-maleaminsäure, N-Äthylmaleaminsäure, N-(2-Hydroxyäthyl)-maleaminsäure bzw. N-Karbamoylmaleaminsäure behandelt. Die Emulsion enthält 0,5 Masse% Kalziumalkylbenzolsulfonat mit 12 bis 14 Kohlenstoffatomen und 0,01 Masse% Dimethylsulfoxid als Adjuvans. Der Verbrauch an Präparat beträgt 6 kg/ha. Als Kontrolle dienen Pflanzen, behandelt mit einem Verdünner ohne Sterilisationsmittel.

[4] = test system: diploidem Roggen Sorte Chulpan; assay: Field test of pollen sterilisation, diploid rye Chulpan; assay type: in vivo; details: 1% aqueous emulsion, 8 kg/ha; for Prozentsatz der Sterilität / Anzahl von Körnern der Ähre bei freier Bestäubung / Anzahl von Körnern der Ähre im Isolator: period V of organogenesis; for Anzahl von Körnern der Ähre bei freier Bestäubung: free pollination; for Anzahl von Körnern der Ähre im Isolator: isolated ears; for Prozentsatz des Ansetzens von Körnern bei freier Bestäubung: period V, non-isolated control ears = 100%
Description: (§7) Mit dem Ahrenschiebe verwirklicht man die Isolierung von Hauptähren und anderen Stockwerken in Pergamentbeuteln. […] Bei Roggen schliesst man je Ähre 5 bis 7 verschiedene nebeneinander befindliche Pflanzen unter einen gemeinsamen Isolator ein. […] Der Sterilitätsprozentsatz (X) für Weizen, Roggen, Tritikale und Hirse wird nach folgender Formel [formula] ermittelt.
Die Emulsion enthält 0,01 Masse% Tetranydrofuran und 0,1 Masse% Kalziumalkylbenzolsulfonat mit 12 bis 14 Kohlenstoffatomen. Der Verbrauch an Präparat beträgt 8 kg/ha. Als Kontrolle dienen Pflanzen, behandelt mit einem Verdünner ohne Sterilisationsmittel.

Tritikale Sorte Prag 109 = assay: Field test of pollen sterilisation, triticale Prag 109; assay type: in vivo; details: 2% aqueous emulsion, 12 kg/ha
Description: (§6) Jedes Sterilisationsmittel wurde mindestens 5 Jahre lang geprüft.
as §2, §3, §4, §5
V.Periode der Organogenese (nach Kupermann) mit einer 2%igen wässrigen Emulsion von N-(3-Dimethylaminopropyl) maleaminsäure, N-Karbamoylmaleaminsäure behandelt. Die Emulsion enthält 0,01 Masse% Tetrahydrofuran […] und 0,1 Masse% Kalziumalkylbenzolsulfonat mit 12 bis 14 Kohlensotffatomen. Der Verbrauch an Präparat beträgt 12 kg/ha. Als Kontrolle dienen Pflanzen, behandelt mit einem Verdünner ohne Sterilisationsmittel.

[5] = test system: tetraploidem Roggen Sorte Belta; assay: Field test of pollen sterilisation, tetraploid rye Belta; assay type: in vivo; details: 1% aqueous emulsion, 10 kg/ha; for Prozentsatz der Sterilität / Anzahl von Körnern der Ähre bei freier Bestäubung / Anzahl von Körnern der Ähre im Isolator: period V of organogenesis; for Anzahl von Körnern der Ähre bei freier Bestäubung: free pollination; for Anzahl von Körnern der Ähre im Isolator: isolated ears; for Prozentsatz des Ansetzens von Körnern bei freier Bestäubung: period V, non-isolated control ears = 100%
Description: as §1, §2, §3, §4, §5
Pflanzen von tetraploidem Roggen Sorte Belta werden in der V. Periode der Organogenese (nach Kupermann) mit einer 1%igen wässrigen Emulsion von N-(2-Dimethylamino- .äthyl)maleaminsäure, N-(3-Dimethylaminopropyl)maleaminsäure, N-Äthylmaleaminsäure, N-(2-Hydroxyäthyl)maleaminsäure bzw. Karbamoylmaleaminsäure behandelt. Die Emulsion enthält 0,5 Masse% Kalziumalkylbenzolsulfonat mit 12 bis 14 Kohlenstoffatomen und 0,01 Masso% Tetrahydrofuran. Der Verbrauch an Präparat beträgt 10 kg/ha. Die Prüfergebnisse sind in der Tabelle 5 dargestellt. […] Periode der Organogenese erhalten.

[6] = Toxicity test in animals (LD50); details: in vivo; animal test, per kg animal weight; species and route not given
Description: Alle erfindungsgemässen N-substituierten Maleaminsäuren, welche als Sterilisationsmittel zur Verwendung kommen, waren auf die Toxizität im Tierversuch geprüft. Die Prüfergebnisse haben ergeben, dass die angegebenen Verbindungen von schwacher oder mittlerer Toxizität sind.

[7] = test system: tetraploidem Roggen Sorte Ukrainskaya tetra; assay: Field test of pollen sterilisation, tetraploid rye Ukrainskaya tetra; assay type: in vivo; details: 1% aqueous emulsion, 6 kg/ha; for Prozentsatz der Sterilität / Anzahl von Körnern der Ähre bei freier Bestäubung / Anzahl von Körnern der Ähre im Isolator: period V of organogenesis; for Anzahl von Körnern der Ähre bei freier Bestäubung: free pollination; for Anzahl von Körnern der Ähre im Isolator: isolated ears; for Prozentsatz des Ansetzens von Körnern bei freier Bestäubung: period V, non-isolated control ears = 100%
Description: as §6, §2, §3, §4, §5
Pflanzen von tetraploidem Roggen Sorte Ukrainskaya tetra werden in der V. Periode der Organogenese (nach Kupermann) mit einer 1%igen wässrigen Emulsion von N-(2-Dimethylaminoäthyl)maleaminsäure, N-(3-Dimethyl-aminopropu)maleaminsäure bzw. N-Karbamoylmaleaminsäure behandelt. Die Emulsion enthält 0,1 Masse% Kaliumalkylbenzolsulfonat mit 12 bis 14 Kohlenstoffatomen und 0,01 Masse% Dodezylsulfat. Der Verbrauch an Präparat beträgt 6 kg/ha. Als Kontrolle dienen Pflanzen, behandelt mit einem Verdünner ohne Sterilisationsmittel. Die Prüfergebnisse sind in der Tabelle 6 dargestellt.

[8] = test system: Winterweizens Sorte Mir.onovskaya 808; assay: Field test of pollen sterilisation (gametocidal activity), winter wheat Mironovskaya 808; assay type: in vivo, Winterweizen; details: 2% aqueous emulsion, 20 kg/ha; for Prozentsatz der Sterilität / Anzahl von Körnern der Ähre bei freier Bestäubung / Anzahl von Körnern der Ähre im Isolator: period V of organogenesis; for Anzahl von Körnern der Ähre bei freier Bestäubung: free pollination; for Anzahl von Körnern der Ähre im Isolator: isolated ears; for Prozentsatz des Ansetzens von Körnern bei freier Bestäubung: period V, non-isolated control ears = 100%
Description: Als Emulgierungsmittel wird 0,1 Masse% Kalziumalkylbenzolsulfonat mit 12 bis 14 Kohlenstoffatomen hinzugefügt. Als Adjuvans fährt man in die Emulsion 0,01 Masse% Dimethylsulfoxid ein. Der Verbrauch an Präparat beträgt 20 kg/ha. Als Kontrolle dienen Pflanzen, behandelt mit einem Verdünner ohne Sterilisationsmittel.

[9] = test system: Sommerweizens Sorte Moskovskaya 35; assay: Field test of pollen sterilisation, spring wheat Moskovskaya 35; assay type: in vivo, Sommerweizen; details: 1% aqueous emulsion, 10 kg/ha; for Prozentsatz der Sterilität / Anzahl von Körnern der Ähre bei freier Bestäubung / Anzahl von Körnern der Ähre im Isolator: period V of organogenesis; for Anzahl von Körnern der Ähre bei freier Bestäubung: free pollination; for Anzahl von Körnern der Ähre im Isolator: isolated ears; for Prozentsatz des Ansetzens von Körnern bei freier Bestäubung: period V, non-isolated control ears = 100%
Description: Pflanzen des Sommerweizens Sorte Moskovskaya 35 werden in V. Periode der Organogenese (nach Kupermann) mit einer 1%igen wässrigen Emulsion von N-(2-Dimethyl-aminoäthyl)-maleaminsäure, N-(3-Dimethylaminopropyl)-maleaminsäure, N-Äthylmaleaminsäure, N-(2-Hydroxyäthyl) maleaminsäure bzw. N-Karbamoylmaleaminsäure behandelt. Die Emulsion enthält 0,5 Masse% Kalziumalkylbenzolsulfonat mit 12 bis 14 Kohlenstoffatomen als Emulgierungsmittel und 0,01 Masse% Dimethylformamid als Adjuvans. Der Verbrauch an Präparat beträgt 10 kg/ha. Als Kontrolle dienen Pflanzen, behandelt mit einem Verdünner ohne Sterilisationsmittel.

[10] = test system: diploidem Roggen Sorte Voskhod 2; assay: Field test of pollen sterilisation, diploid rye Voskhod 2; assay type: in vivo; details: 1% aqueous emulsion, 10 kg/ha; for Prozentsatz der Sterilität / Anzahl von Körnern der Ähre bei freier Bestäubung / Anzahl von Körnern der Ähre im Isolator: period V of organogenesis; for Anzahl von Körnern der Ähre bei freier Bestäubung: free pollination; for Anzahl von Körnern der Ähre im Isolator: isolated ears; for Prozentsatz des Ansetzens von Körnern bei freier Bestäubung: period V, non-isolated control ears = 100%
Description: Die Emulsion enthält 0,1 Masse% Kalziumalkylbenzolsulfonat und 0,01 Masse% Dimethylformamid. Der Verbrauch an Präparat beträgt 10 kg/ha. Als Kontrolle dienen Pflanzen, behandelt mit einem Lösungsmittel ohne Sterilisationsmittel.

[11] = test system: diploidem Roggen Sorte Talovskaya 12; assay: Field test of pollen sterilisation, diploid rye Talovskaya 12; assay type: in vivo; details: 1% aqueous emulsion, 6 kg/ha; for Prozentsatz der Sterilität / Anzahl von Körnern der Ähre bei freier Bestäubung / Anzahl von Körnern der Ähre im Isolator: period V of organogenesis; for Anzahl von Körnern der Ähre bei freier Bestäubung: free pollination; for Anzahl von Körnern der Ähre im Isolator: isolated ears; for Prozentsatz des Ansetzens von Körnern bei freier Bestäubung: period V, non-isolated control ears = 100%
Description: as §7
Pflanzen von diploidem Roggen Sorte Talovskaya 12 werden in der V. Periode der Organogenese (nach Kupermann) mit einer 1%igen wässrigen Emulsion von N-(2-Di- methylaminoäthyl)-maleaminsäure, N-(3-Dimethylaminopropyl)-maleaminsäure, N-Äthylmaleaminsäure, N-(2-Hydroxyäthyl)maleaminsäure, N-Karbamoylmaleaminsäure behandelt. Die Emulsion enthält 0,01 Masse% Dodezylsulfat und 0,1 Masse% Kalziumalkylbenzolsulfonat mit 12 bis _14 Kohlenstoffatomen. Der Verbrauch an Präparat beträgt 6 kg/ha. Als Kontrolle dienen Pflanzen, behandelt mit einem Verdünner ohne Sterilisationsmittel.

NC(=O)NC(=O)/C=C\C(=O)O [Beispiel 5, N-Karbamoylmaleaminsäure]
Prozentsatz der Sterilität [1]: 100,0%
Anzahl von Körnern der Rispe bei freier Bestäubung [1]: 198,2
Anzahl von Körnern der Rispe im Isolator [1]: 0,0
Prozentsatz des Ansetzens von Körnern bei freier Bestäubung [1]: 87,2%
Prozentsatz der Sterilität [2]: 97,8%
Anzahl von Körnern der Ähre bei freier Bestäubung [2]: 41,8
Anzahl von Körnern der Ähre im Isolator [2]: 0,7
Prozentsatz des Ansetzens von Körnern bei breier Bestäubung [2]: 97,4%
Prozentsatz der Sterilität [3]: 100,0%
Anzahl von Körnern der Ähre bei freier Bestäubung [3]: 27,1
Anzahl von Körnern der Ähre im Isolator [3]: 0,0
Prozentsatz des Ansetzens von Körnern bei freier Bestäubung [3]: 90,0%
Prozentsatz der Sterilität [4]: 100,0%
Anzahl von Körnern der Ähre bei freier Bestäubung [4]: 48,7
Anzahl von Körnern der Ähre im Isolator [4]: 0,0
Prozentsatz des Ansetzens von Körnern bei freier Bestäubung [4]: 85,7%
Prozentsatz der Sterilität (Tritikale Sorte Prag 109; period V of organogenesis): 100,0%
Anzahl von Körnern der Ähre bei freier Bestäubung (Tritikale Sorte Prag 109; period V of organogenesis, free pollination): 39,6
Anzahl von Körnern der Ähre im Isolator (Tritikale Sorte Prag 109; period V of organogenesis, isolated ears): 0,0
Prozentsatz des Ansetzens von Körnern bei freier Bestäubung (Tritikale Sorte Prag 109; period V, non-isolated control ears = 100%): 86,5%
Prozentsatz der Sterilität [5]: 100,0%
Anzahl von Körnern der Ähre bei freier Bestäubung [5]: 47,8
Anzahl von Körnern der Ähre im Isolator [5]: 0,0
Prozentsatz des Ansetzens von Körnern bei freier Bestäubung [5]: 87,2%
LD50 [6]: 2000 mg/kg
Prozentsatz der Sterilität [7]: 99,4%
Anzahl von Körnern der Ähre bei freier Bestäubung [7]: 44,0
Anzahl von Körnern der Ähre im Isolator [7]: 0,2
Prozentsatz des Ansetzens von Körnern bei freier Bestäubung [7]: 98,2%
Prozentsatz der Sterilität [8]: 100,0%
Anzahl von Körnern der Ähre bei freier Bestäubung [8]: 40,0
Anzahl von Körnern der Ähre im Isolator [8]: 0,0
Prozentsatz des Ansetzens von Körnern bei freier Bestäubung [8]: 93,9%
Prozentsatz der Sterilität [9]: 100,0%
Anzahl von Körnern der Ähre bei freier Bestäubung [9]: 27,2
Anzahl von Körnern der Ähre im Isolator [9]: 0,0
Prozentsatz des Ansetzens von Körnern bei freier Bestäubung [9]: 98,9%
Prozentsatz der Sterilität [10]: 98,2%
Anzahl von Körnern der Ähre bei freier Bestäubung [10]: 51,7
Anzahl von Körnern der Ähre im Isolator [10]: 0,9
Prozentsatz des Ansetzens von Körnern bei freier Bestäubung [10]: 93,7%
Prozentsatz der Sterilität [11]: 100,0%
Anzahl von Körnern der Ähre bei freier Bestäubung [11]: 48,9
Anzahl von Körnern der Ähre im Isolator [11]: 0,0
Prozentsatz des Ansetzens von Körnern bei freier Bestäubung [11]: 87,0%

CN(C)CCNC(=O)/C=C\C(=O)O [Beispiel 1, N-(2-Dimethylaminoäthyl)-maleaminsäure]
Prozentsatz der Sterilität [1]: 100,0%
Anzahl von Körnern der Rispe bei freier Bestäubung [1]: 224,8
Anzahl von Körnern der Rispe im Isolator [1]: 0,0
Prozentsatz des Ansetzens von Körnern bei freier Bestäubung [1]: 98,9%
Prozentsatz der Sterilität [2]: 100,0%
Anzahl von Körnern der Ähre bei freier Bestäubung [2]: 39,7
Anzahl von Körnern der Ähre im Isolator [2]: 0,0
Prozentsatz des Ansetzens von Körnern bei breier Bestäubung [2]: 92,5%
Prozentsatz der Sterilität [3]: 97,5%
Anzahl von Körnern der Ähre bei freier Bestäubung [3]: 29,8
Anzahl von Körnern der Ähre im Isolator [3]: 0,7
Prozentsatz des Ansetzens von Körnern bei freier Bestäubung [3]: 99,0%
Prozentsatz der Sterilität [4]: 99,6%
Anzahl von Körnern der Ähre bei freier Bestäubung [4]: 50,2
Anzahl von Körnern der Ähre im Isolator [4]: 0,2
Prozentsatz des Ansetzens von Körnern bei freier Bestäubung [4]: 88,4%
Prozentsatz der Sterilität [5]: 100,0%
Anzahl von Körnern der Ähre bei freier Bestäubung [5]: 48,2
Anzahl von Körnern der Ähre im Isolator [5]: 0,0
Prozentsatz des Ansetzens von Körnern bei freier Bestäubung [5]: 88,2%
LD50 [6]: 2500 mg/kg
Prozentsatz der Sterilität [7]: 100,0%
Anzahl von Körnern der Ähre bei freier Bestäubung [7]: 40,1
Anzahl von Körnern der Ähre im Isolator [7]: 0,0
Prozentsatz des Ansetzens von Körnern bei freier Bestäubung [7]: 89,5%
Prozentsatz der Sterilität [8]: 99,8%
Anzahl von Körnern der Ähre bei freier Bestäubung [8]: 38,3
Anzahl von Körnern der Ähre im Isolator [8]: 0,1
Prozentsatz des Ansetzens von Körnern bei freier Bestäubung [8]: 89,9%
Prozentsatz der Sterilität [9]: 99,3%
Anzahl von Körnern der Ähre bei freier Bestäubung [9]: 26,8
Anzahl von Körnern der Ähre im Isolator [9]: 0,2
Prozentsatz des Ansetzens von Körnern bei freier Bestäubung [9]: 97,4%
Prozentsatz der Sterilität [10]: 100,0%
Anzahl von Körnern der Ähre bei freier Bestäubung [10]: 51,2
Anzahl von Körnern der Ähre im Isolator [10]: 0,0
Prozentsatz des Ansetzens von Körnern bei freier Bestäubung [10]: 92,7%
Prozentsatz der Sterilität [11]: 99,5%
Anzahl von Körnern der Ähre bei freier Bestäubung [11]: 51,2
Anzahl von Körnern der Ähre im Isolator [11]: 0,2
Prozentsatz des Ansetzens von Körnern bei freier Bestäubung [11]: 91,1%
